Measurements published in the kinase profiling compilation of Christmann-Franck et al. (2016).

Assays:
Experiment in all cases: KINOMEscan competition binding
Conditions in all cases: compound 10.0 µM
[1] = target: SGK110 (human) (UniProt P0C264)
[2] = target: CDK3 (human) (UniProt Q00526)
[3] = target: FGFR3 (human) (UniProt P22607)
[4] = target: PIP4K2B (human) (UniProt P78356)
[5] = target: MAPK12 (human) (UniProt P53778)
[6] = target: MAP4K5 (human) (UniProt Q9Y4K4)
[7] = target: EPHB6 (human) (UniProt O15197)
[8] = target: EPHB2 (human) (UniProt P29323)
[9] = target: NEK9 (human) (UniProt Q8TD19)
[10] = target: PRKAA1 (human) (UniProt Q13131)
[11] = target: PRKD1 (human) (UniProt Q15139)
PRKD1 (human), sequence (Q15139 whole entry, looked up): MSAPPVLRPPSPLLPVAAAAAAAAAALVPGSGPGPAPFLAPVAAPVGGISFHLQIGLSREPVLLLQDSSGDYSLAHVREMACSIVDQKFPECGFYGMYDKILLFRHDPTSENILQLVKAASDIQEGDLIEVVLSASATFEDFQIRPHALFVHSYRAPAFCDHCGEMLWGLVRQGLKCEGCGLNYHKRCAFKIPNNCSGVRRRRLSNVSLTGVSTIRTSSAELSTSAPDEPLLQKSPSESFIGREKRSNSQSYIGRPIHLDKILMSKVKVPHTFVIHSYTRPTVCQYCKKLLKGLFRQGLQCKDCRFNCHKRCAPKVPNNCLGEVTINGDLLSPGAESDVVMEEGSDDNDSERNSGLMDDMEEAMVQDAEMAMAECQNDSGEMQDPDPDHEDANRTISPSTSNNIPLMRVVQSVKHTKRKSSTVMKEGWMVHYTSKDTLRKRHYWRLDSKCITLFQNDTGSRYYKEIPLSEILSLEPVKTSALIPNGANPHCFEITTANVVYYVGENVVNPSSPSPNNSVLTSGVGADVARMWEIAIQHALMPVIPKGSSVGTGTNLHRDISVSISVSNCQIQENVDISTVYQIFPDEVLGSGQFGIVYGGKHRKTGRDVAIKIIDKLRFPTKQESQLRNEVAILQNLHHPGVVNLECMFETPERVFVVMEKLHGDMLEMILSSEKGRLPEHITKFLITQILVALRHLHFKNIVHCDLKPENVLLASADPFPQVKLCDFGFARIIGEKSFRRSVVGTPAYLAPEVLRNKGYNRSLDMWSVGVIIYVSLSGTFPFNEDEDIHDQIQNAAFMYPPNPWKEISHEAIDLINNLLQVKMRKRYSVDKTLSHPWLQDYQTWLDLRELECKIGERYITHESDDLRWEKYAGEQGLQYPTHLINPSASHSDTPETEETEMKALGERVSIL

[12] = target: DCLK3 (human) (UniProt Q9C098)
[13] = target: HIPK3 (human) (UniProt Q9H422)
[14] = target: STK32A (human) (UniProt Q8WU08)
[15] = target: STK16 (human) (UniProt O75716)
[16] = target: TESK1 (human) (UniProt Q15569)
TESK1 (human), sequence (Q15569 whole entry, looked up): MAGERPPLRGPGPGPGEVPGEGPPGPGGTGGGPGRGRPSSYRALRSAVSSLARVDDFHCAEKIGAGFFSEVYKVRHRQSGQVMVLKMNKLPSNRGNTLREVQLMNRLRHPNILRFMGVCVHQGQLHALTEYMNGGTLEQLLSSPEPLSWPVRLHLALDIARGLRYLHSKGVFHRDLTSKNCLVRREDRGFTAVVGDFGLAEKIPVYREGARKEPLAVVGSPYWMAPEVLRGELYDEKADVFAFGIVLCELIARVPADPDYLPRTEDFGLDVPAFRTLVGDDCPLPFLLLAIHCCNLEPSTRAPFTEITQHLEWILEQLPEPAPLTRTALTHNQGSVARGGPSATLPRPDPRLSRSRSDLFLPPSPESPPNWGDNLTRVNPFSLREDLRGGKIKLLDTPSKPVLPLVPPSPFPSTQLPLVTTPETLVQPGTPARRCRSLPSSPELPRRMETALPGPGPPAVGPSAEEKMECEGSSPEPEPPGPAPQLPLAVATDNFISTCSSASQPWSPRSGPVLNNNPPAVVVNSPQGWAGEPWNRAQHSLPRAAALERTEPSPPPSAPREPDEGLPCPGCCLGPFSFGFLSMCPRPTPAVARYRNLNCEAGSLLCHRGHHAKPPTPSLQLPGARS

[17] = target: BMPR2 (human) (UniProt Q13873)
[18] = target: HUNK (human) (UniProt P57058)
[19] = target: PIP5K1A (human) (UniProt Q99755)
PIP5K1A (human), sequence (Q99755 whole entry, looked up): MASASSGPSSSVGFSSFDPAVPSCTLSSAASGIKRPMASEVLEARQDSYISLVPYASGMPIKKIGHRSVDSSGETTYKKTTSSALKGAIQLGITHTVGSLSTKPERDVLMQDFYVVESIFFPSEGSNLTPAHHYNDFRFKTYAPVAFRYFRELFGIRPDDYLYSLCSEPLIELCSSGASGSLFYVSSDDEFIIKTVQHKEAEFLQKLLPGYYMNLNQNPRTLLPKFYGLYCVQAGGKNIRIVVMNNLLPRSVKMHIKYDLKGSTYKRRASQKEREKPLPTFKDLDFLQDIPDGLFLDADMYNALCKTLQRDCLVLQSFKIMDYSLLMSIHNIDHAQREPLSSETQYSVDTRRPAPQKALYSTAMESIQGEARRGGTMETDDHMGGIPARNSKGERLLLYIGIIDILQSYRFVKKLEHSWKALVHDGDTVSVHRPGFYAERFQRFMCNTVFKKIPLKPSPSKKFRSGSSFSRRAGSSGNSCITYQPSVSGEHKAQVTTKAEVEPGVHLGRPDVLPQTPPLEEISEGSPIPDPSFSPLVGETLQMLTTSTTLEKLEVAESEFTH

[20] = target: TYK2 JH1 catalytic (human) (UniProt P29597)
[21] = target: RPS6KA3 KD1 (human) (UniProt P51812)
[22] = target: LRRK2 (human) (UniProt Q5S007)
[23] = target: PLK3 (human) (UniProt Q9H4B4)
[24] = target: MAP3K13 (human) (UniProt O43283)
[25] = target: CSNK1A1L (human) (UniProt Q8N752)
CSNK1A1L (human), sequence (Q8N752 whole entry, looked up): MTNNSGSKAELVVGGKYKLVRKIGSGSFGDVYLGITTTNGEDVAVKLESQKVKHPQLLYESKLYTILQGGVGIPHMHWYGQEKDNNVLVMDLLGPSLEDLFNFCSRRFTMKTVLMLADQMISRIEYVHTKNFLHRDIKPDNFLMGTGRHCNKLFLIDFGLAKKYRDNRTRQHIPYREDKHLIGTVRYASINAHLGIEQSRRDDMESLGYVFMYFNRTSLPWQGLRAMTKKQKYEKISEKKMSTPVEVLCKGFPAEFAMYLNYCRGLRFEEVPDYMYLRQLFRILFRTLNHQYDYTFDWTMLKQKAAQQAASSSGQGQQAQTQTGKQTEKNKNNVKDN

[26] = target: MAP3K12 (human) (UniProt Q12852)
[27] = target: MAPK10 (human) (UniProt P53779)
[28] = target: ALK (human) (UniProt Q9UM73)
ALK (human), sequence (Q9UM73 whole entry, looked up): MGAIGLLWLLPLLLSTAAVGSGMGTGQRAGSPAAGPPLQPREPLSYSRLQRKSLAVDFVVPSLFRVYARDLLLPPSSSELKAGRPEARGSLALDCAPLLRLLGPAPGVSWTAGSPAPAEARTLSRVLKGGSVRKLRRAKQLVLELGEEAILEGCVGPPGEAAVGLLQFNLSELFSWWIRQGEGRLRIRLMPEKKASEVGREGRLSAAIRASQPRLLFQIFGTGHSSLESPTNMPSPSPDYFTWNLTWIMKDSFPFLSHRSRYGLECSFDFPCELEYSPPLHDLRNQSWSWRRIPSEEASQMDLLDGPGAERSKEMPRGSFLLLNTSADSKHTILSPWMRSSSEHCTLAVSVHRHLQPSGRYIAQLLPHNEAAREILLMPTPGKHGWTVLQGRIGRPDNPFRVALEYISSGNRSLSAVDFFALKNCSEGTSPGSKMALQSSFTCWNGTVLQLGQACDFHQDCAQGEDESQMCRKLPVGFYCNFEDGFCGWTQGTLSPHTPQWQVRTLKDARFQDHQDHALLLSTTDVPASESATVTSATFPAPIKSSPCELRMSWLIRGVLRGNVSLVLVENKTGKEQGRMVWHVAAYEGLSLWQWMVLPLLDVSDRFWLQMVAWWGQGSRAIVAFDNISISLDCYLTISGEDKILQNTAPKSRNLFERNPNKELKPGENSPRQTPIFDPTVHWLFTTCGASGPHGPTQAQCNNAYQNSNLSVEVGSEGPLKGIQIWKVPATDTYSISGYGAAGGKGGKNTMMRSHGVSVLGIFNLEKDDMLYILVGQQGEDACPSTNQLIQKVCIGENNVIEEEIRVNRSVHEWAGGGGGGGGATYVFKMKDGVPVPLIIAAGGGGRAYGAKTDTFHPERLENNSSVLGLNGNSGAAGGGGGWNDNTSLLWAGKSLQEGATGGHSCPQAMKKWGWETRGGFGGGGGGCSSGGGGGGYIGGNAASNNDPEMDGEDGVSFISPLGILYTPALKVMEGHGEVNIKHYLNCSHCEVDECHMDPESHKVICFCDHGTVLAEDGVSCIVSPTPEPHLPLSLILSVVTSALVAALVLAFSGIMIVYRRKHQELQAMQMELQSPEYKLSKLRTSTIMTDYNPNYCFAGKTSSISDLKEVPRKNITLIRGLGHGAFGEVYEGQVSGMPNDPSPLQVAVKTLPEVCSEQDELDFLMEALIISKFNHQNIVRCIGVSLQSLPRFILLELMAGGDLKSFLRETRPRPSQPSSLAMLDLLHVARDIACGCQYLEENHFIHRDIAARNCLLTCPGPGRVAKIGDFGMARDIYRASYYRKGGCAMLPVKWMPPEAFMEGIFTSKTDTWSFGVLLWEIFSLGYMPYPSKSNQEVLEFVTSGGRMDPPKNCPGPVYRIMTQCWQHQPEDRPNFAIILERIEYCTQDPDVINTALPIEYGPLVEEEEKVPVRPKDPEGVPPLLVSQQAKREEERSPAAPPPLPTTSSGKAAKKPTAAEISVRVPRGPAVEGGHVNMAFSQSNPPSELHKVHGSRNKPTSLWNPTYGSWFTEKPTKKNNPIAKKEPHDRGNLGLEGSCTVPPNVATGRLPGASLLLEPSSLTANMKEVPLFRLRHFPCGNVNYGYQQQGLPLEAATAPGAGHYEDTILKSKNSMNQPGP

[29] = target: ICK (human) (UniProt Q9UPZ9)
ICK (human), sequence (Q9UPZ9 whole entry, looked up): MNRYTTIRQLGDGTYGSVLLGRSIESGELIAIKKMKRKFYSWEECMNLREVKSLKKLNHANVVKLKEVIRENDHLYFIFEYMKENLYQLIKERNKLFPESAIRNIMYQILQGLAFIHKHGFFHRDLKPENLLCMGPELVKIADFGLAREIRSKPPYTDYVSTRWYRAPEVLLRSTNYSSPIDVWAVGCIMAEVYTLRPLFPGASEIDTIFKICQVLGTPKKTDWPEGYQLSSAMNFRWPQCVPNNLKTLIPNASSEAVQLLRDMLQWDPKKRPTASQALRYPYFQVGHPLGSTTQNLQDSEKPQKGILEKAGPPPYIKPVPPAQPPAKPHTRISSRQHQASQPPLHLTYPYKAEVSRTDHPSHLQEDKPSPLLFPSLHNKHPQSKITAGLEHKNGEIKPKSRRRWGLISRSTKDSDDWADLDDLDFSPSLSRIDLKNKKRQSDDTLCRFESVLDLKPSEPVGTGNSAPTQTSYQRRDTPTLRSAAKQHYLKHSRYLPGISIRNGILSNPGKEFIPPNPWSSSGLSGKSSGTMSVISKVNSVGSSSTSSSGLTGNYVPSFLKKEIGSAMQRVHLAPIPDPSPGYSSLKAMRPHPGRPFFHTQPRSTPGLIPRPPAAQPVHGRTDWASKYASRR

[30] = target: TBK1 (human) (UniProt Q9UHD2)
[31] = target: CLK1 (human) (UniProt P49759)
[32] = target: PRKD2 (human) (UniProt Q9BZL6)
[33] = target: ACVR2B (human) (UniProt Q13705)
[34] = target: EPHA8 (human) (UniProt P29322)
[35] = test system: EGFR (human), P00533 [T790M/L858R]
[36] = target: CDKL1 (human) (UniProt Q00532)
[37] = target: DAPK2 (human) (UniProt Q9UIK4)
DAPK2 (human), sequence (Q9UIK4 whole entry, looked up): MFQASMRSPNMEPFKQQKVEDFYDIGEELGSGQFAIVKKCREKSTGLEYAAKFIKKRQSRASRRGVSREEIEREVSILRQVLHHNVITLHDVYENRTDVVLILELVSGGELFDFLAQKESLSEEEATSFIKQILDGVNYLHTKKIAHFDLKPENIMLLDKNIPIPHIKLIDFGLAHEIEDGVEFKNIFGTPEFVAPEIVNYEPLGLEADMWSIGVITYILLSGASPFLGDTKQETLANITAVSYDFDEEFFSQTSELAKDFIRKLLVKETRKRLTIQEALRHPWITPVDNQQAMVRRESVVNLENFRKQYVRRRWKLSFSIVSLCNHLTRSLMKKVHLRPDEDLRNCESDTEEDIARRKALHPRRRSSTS

[38] = target: MST4 (human) (UniProt Q9P289)
[39] = target: RIPK2 (human) (UniProt O43353)
[40] = target: PAK4 (human) (UniProt O96013)

COc1cc(C(=O)N2CCC(N3CCN(C)CC3)CC2)ccc1Nc1ncc2c(n1)N(C)c1ccccc1C(=O)N2C showed a kinase still bound, per cent of control [1] of 62%, a kinase still bound, per cent of control [2] of 100% and a kinase still bound, per cent of control [3] of 80%. The kinase still bound, per cent of control [4] was 100%, the kinase still bound, per cent of control [5] was 76% and the kinase still bound, per cent of control [6] was 100%. It also gave a kinase still bound, per cent of control [7] of 31%, a kinase still bound, per cent of control [8] of 100% and a kinase still bound, per cent of control [9] of 100%. The kinase still bound, per cent of control [10] was 51%, the kinase still bound, per cent of control [11] was 28% and the kinase still bound, per cent of control [12] was 90%. It also gave a kinase still bound, per cent of control [13] of 89%, a kinase still bound, per cent of control [14] of 100% and a kinase still bound, per cent of control [15] of 62%. The kinase still bound, per cent of control [16] was 82%, the kinase still bound, per cent of control [17] was 87% and the kinase still bound, per cent of control [18] was 100%. The kinase still bound, per cent of control [19] was 90%, the kinase still bound, per cent of control [20] was 52% and the kinase still bound, per cent of control [21] was 77%. For the same molecule, the kinase still bound, per cent of control [22] was 0%, the kinase still bound, per cent of control [23] was 51% and the kinase still bound, per cent of control [24] was 100%. It also gave a kinase still bound, per cent of control [25] of 100%, a kinase still bound, per cent of control [26] of 81% and a kinase still bound, per cent of control [27] of 77%. The kinase still bound, per cent of control [28] was 13%, the kinase still bound, per cent of control [29] was 90% and the kinase still bound, per cent of control [30] was 97%. For the same molecule, the kinase still bound, per cent of control [31] was 28%, the kinase still bound, per cent of control [32] was 59% and the kinase still bound, per cent of control [33] was 100%. It also gave a kinase still bound, per cent of control [34] of 80%, a kinase still bound, per cent of control [35] of 84% and a kinase still bound, per cent of control [36] of 78%. It also gave a kinase still bound, per cent of control [37] of 67%, a kinase still bound, per cent of control [38] of 95% and a kinase still bound, per cent of control [39] of 100%. For the same molecule, the kinase still bound, per cent of control [40] was 94%.

CCN1CCN(C(=O)Cc2ccc(Nc3ncc(F)c(Nc4ccc(C(=O)Nc5ccccc5Cl)cc4)n3)cc2)CC1 gave a kinase still bound, per cent of control [1] of 40%, a kinase still bound, per cent of control [2] of 92% and a kinase still bound, per cent of control [3] of 20%. For the same molecule, the kinase still bound, per cent of control [4] was 1.6%, the kinase still bound, per cent of control [5] was 100% and the kinase still bound, per cent of control [6] was 64%. It also gave a kinase still bound, per cent of control [7] of 15%, a kinase still bound, per cent of control [8] of 93% and a kinase still bound, per cent of control [9] of 18%. The kinase still bound, per cent of control [10] was 32%, the kinase still bound, per cent of control [11] was 100% and the kinase still bound, per cent of control [12] was 80%. It also gave a kinase still bound, per cent of control [13] of 12%, a kinase still bound, per cent of control [14] of 100% and a kinase still bound, per cent of control [15] of 1.6%. The kinase still bound, per cent of control [16] was 44%, the kinase still bound, per cent of control [17] was 25% and the kinase still bound, per cent of control [18] was 49%. It also gave a kinase still bound, per cent of control [19] of 0%, a kinase still bound, per cent of control [20] of 22% and a kinase still bound, per cent of control [21] of 32%. The kinase still bound, per cent of control [22] was 73%, the kinase still bound, per cent of control [23] was 82% and the kinase still bound, per cent of control [24] was 44%. The kinase still bound, per cent of control [25] was 100%, the kinase still bound, per cent of control [26] was 71% and the kinase still bound, per cent of control [27] was 0.8%. The kinase still bound, per cent of control [28] was 22%, the kinase still bound, per cent of control [29] was 100% and the kinase still bound, per cent of control [30] was 5.6%. The kinase still bound, per cent of control [31] was 22%, the kinase still bound, per cent of control [32] was 100% and the kinase still bound, per cent of control [33] was 38%. It also gave a kinase still bound, per cent of control [34] of 63%, a kinase still bound, per cent of control [35] of 76% and a kinase still bound, per cent of control [36] of 41%. For the same molecule, the kinase still bound, per cent of control [37] was 15%, the kinase still bound, per cent of control [38] was 43% and the kinase still bound, per cent of control [39] was 19%. It also gave a kinase still bound, per cent of control [40] of 47%.
